Data on 4 substances can be found in patent publication US20060093596A1, “Genomic approach to identification of novel broad-spectrum antimicrobial peptides from bony fish” (priority 2002, published 2006).

Assay [1] has as its system Pseudomonas aeruginosa K799 (H187). The format is cell-based. Conditions: for Minimal inhibitory concentration, P. aeru K799: lowest peptide concentration inhibiting growth by at least 50%, Mueller-Hinton broth.
Description: (§2) Most non-fish bacterial strains as well as Candida albicans were grown at 37° C. in Mueller-Hinton Broth (MHB; Difco Laboratories, Detroit), while the fish bacteria were maintained at 16° C. in Tryptic Soy Broth (TSB; Difco, 5g/l NaCl). All strains were stored at −70° C. until they were thawed for use and sub-cultured daily. The following strains, Pseudomonas aeruginosa K799 (parent of Z61), Pseudomonas aeruginosa Z61 (antibiotic supersusceptible), Salmonella typhimurium 14028s (parent of MS7953s), Salmonella typhimurium MS7953s (defensin supersusceptible), as well as Staphylococcus epidermidis (human clinical isolates) and methicillin-resistant Staphylococcus aureus (MRSA; isolated by Dr. A. Chow, University of British Columbia) have been kindly donated by Prof R. E. W. Hancock, University of British Columbia.
(§3) The activities of the antimicrobial peptides were determined as minimal inhibitory concentrations (MICs) using the microtitre broth dilution method of Amsterdam (Amsterdam, 1996), as modified by Wu and Hancock (1999). Serial dilutions of the peptide were made in water in 96-well polypropylene (Costar, Coming Incorporated, Coming, New York) microtiter plates. Bacteria or C. albicans were grown overnight to mid-logarithmic phase as described above, and diluted to give a final inoculum size of 10^6 cfu/ml. A suspension of bacteria or yeast was added to each well of a 96 well plate and incubated overnight at the appropriate temperature. […] Three repeats of each MIC determination were performed.
A further assay concerns Candida albicans. Briefly: Killing assay (survival at MIC and ten times MIC). The format is cell-based. The note with it: Mueller-Hinton broth, FIG. 15. The protocol:
(§1) Survival of bacteria and C. albicans upon exposure to selected peptides applied at their minimal inhibitory concentrations (MICs) and ten times their MICs was measured using standard methodology. The test organisms were grown in MHB and exposed to the peptides. At the specified time intervals equal aliquots were removed from the cultures, plated on MHB plates, and the resulting colonies were counted. Percentage survival was plotted against time on a logarithmic scale. Two repeats of each experiment were performed.
FIG. 15 describes Survival of a yeast (Candida albicans) upon exposure to NRC-12 at its minimal inhibitory concentration (MIC) and ten times its MIC. C. albicans was grown in Mueller-Hinton broth and exposed to NRC-12 at its MIC and ten times its MIC. At the specified intervals equal aliquots were removed from the culture, plated on MHB plates, and the resulting colonies were counted.

The subject of assay [2] is Pseudomonas aeruginosa Z61 (H188, supersusceptible strain). The format is cell-based. Conditions: for Minimal inhibitory concentration, P. aeru Z61: lowest peptide concentration inhibiting growth by at least 50%, Mueller-Hinton broth.
Description: as §2, §3
Assay [3] concerns Staphylococcus epidermidis C621 (clinical isolate).
Description: as §2, §3
The test system of assay [4] is Aeromonas salmonicida 97-4.
Description: (§4) Most non-fish bacterial strains as well as Candida albicans were grown at 37° C. in Mueller-Hinton Broth (MHB; Difco Laboratories, Detroit), while the fish bacteria were maintained at 16° C. in Tryptic Soy Broth (TSB; Difco, 5g/l NaCl).
(§5) Two field isolates of the salmonid pathogen Aeromonas salmonicida are from the IMB strain collection.
as §3
In assay [5] the test system is methicillin-resistant Staphylococcus aureus (MRSA) C623, SAP017. The note with it: for Minimal inhibitory concentration, MRSA C623: methicillin-resistant C623, SAP017.
Description: as §2, §3
Assay [6] concerns Escherichia coli C786, CGSC4908. The format is cell-based. The note with it: lowest peptide concentration inhibiting growth by at least 50%; supplemented Mueller-Hinton broth.
Description: All strains were stored at −70° C. until they were thawed for use and sub-cultured daily.
Escherichia coli strain CGSC 4908 (his-67, thyA43, pyr-37), auxotrophic for thymidine, uridine, and L-histidine (Cohen et al., 1963) was kindly supplied, free of charge, by the E.coli Genetic Stock Centre (Yale University, New Haven, Conn.). MHB supplemented with 5 mg/L thymidine, 10 mg/L uridine and 20 mg/L L-histidine (Sigma Chemical Co., St. Louis, Mo.), was used to grow E.coli CGSC 4908 unless otherwise specified.
The activities of the antimicrobial peptides were determined as minimal inhibitory concentrations (MICs) using the microtitre broth dilution method of Amsterdam (Amsterdam, 1996), as modified by Wu and Hancock (1999). Serial dilutions of the peptide were made in water in 96-well polypropylene (Costar, Coming Incorporated, Coming, New York) microtiter plates. Bacteria or C. albicans were grown overnight to mid-logarithmic phase as described above, and diluted to give a final inoculum size of 10^6 cfu/ml. A suspension of bacteria or yeast was added to each well of a 96 well plate and incubated overnight at the appropriate temperature. In the case of E. coli CGSC 4908, supplemented MHB was used. […] Three repeats of each MIC determination were performed.
For assay [7], the system named is Aeromonas salmonicida 99-1, A449.
Description: as §4, §5, §3
In assay [8] the test system is Candida albicans C627, CALB105. Conditions: for Minimal inhibitory concentration, C. alb C627: C627, CALB105.
Description: as §2, §3
Assay [9] deals with Salmonella enterica s. Typhimurium 14028S (C587). The format is cell-based. The note with it: lowest peptide concentration inhibiting growth by at least 50%; Mueller-Hinton broth.
Description: as §2, §3
Assay [10] has as its system Salmonella enterica s. Typhimurium MS4252S (C610, supersusceptible strain). The format is cell-based. The note with it: lowest peptide concentration inhibiting growth by at least 50%; Mueller-Hinton broth.
Description: as §2, §3
Assay [11] has as its system Escherichia coli DC2 (C500, outer membrane-permeable mutant). The format is cell-based. Conditions: lowest peptide concentration inhibiting growth by at least 50%; Mueller-Hinton broth.
Description: as §2, §3
The subject of assay [12] is Escherichia coli UB1005 (C498). The format is cell-based. Conditions: lowest peptide concentration inhibiting growth by at least 50%; Mueller-Hinton broth.
Description: as §2, §3
For assay [13], the system named is bacterial pathogens and C. albicans. The assay can be described thus: Spectrum of antimicrobial activity (MIC panel, overall). The note with it: summary of MIC results against bacteria and C. albicans. The format is cell-based. The procedure: Three repeats of each MIC determination were performed.
The minimal inhibitory concentrations of the chemically produced peptides against a wide range of baterial pathogens and C. albicans were determined and are shown in Table 9.

Assay [14] relates to methicillin-resistant Staphylococcus aureus (MRSA). Briefly: Killing assay (survival at MIC and ten times MIC). The format is cell-based. The note with it: Mueller-Hinton broth, FIG. 13. The procedure:
as §1
FIG. 13 describes Survival of a Gram-positive bacterium (methicillin-resistant Staphylococcus aureus—MRSA) upon exposure to NRC-15 at its minimal inhibitory concentration (MIC) and ten times its MIC. S. aureus was grown in Mueller-Hinton broth and exposed to NRC-15 at its MIC and ten times its MIC. At the specified intervals equal aliquots were removed from the culture, plated on MHB plates, and the resulting colonies were counted.

The next assay deals with Pseudomonas aeruginosa. The assay can be described thus: Killing assay (survival at MIC and ten times MIC). The format is cell-based. The procedure:
as §1
FIG. 14 describes Survival of a Gram-negative bacterium (Pseudomonas aeruginosa) upon exposure to NRC-13 at its minimal inhibitory concentration (MIC) and ten times its MIC. P. aeruginosa was grown in Mueller-Hinton broth and exposed to NRC-13 at its MIC and ten times its MIC. At the specified intervals equal aliquots were removed from the culture, plated on MHB plates, and the resulting colonies were counted.

The next assay concerns P. aeruginosa K799. The assay can be described thus: Killing assay in culture supplemented with NaCl. The format is cell-based, Pseudomonas aeruginosa. The note with it: culture supplemented with 150 mM NaCl; 4 μg/ml (MIC) or 40 μg/ml (10×MIC); FIG. 25. The protocol: as §1
Peptides of the invention can be used at a range of pH's, salt concentrations, and temperatures. These peptides are useful against pathogens grown in biofilms or under any other conditions for pathogen growth or culture. See for example FIG. 25 in which the ability of NRC-13 to kill P. aeruginosa K799 in […] is shown. NRC-13 was added to a culture of P. aeruginosa supplemented with 150 mM NaCl to a final concentration of 4 μg/ml (□) or 40 μg/ml (Δ), representing the MIC and 10×MIC, respectively. A control with no peptide added is also shown (♦).

The subject of another assay is Vibrio anguillarum. The note with it: Coho salmon; Jia et al. 2000; cited from earlier work.

Entries after “also recorded” stand apart in the source; their conditions may differ. Where no end group is shown, it is not given here.

For GWKKWFNRAKKVGKTVGGLAVDHYL-NH2 [NRC-12], the “Minimal inhibitory concentration, P. aeru K799” value in [1] was 4 µg/mL. Also, the “ability to kill C. albicans” value with Candida albicans is reported as “ability to kill”. Also, the “Minimal inhibitory concentration, P. aeru Z61” value in [2] was 1 µg/mL. Further, the “Minimal inhibitory concentration, S. epi C621” value in assay [3] was determined as 8 µg/mL. Also, the “Minimal inhibitory concentration, A. sal 97-4” value in assay [4] was 2 µg/mL. Moreover, in assay [5], the “Minimal inhibitory concentration, MRSA C623” value was determined as 16 µg/mL. The “Minimal inhibitory concentration, E. coli C786” value in assay [6] was determined as 2 µg/mL. For the same substance, in assay [7], the “Minimal inhibitory concentration, A. sal 99-1” value worked out at 2 µg/mL. In assay [8], the “Minimal inhibitory concentration, C. alb C627” value was 4 µg/mL. In assay [9], the “Minimal inhibitory concentration, S. typh 14028s” value worked out at 8 µg/mL. For the same substance, the “Minimal inhibitory concentration, S. typh MS4252s” value in [10] worked out at 2 µg/mL. In [11], the “Minimal inhibitory concentration, E. coli DC2” value turned out to be 2 µg/mL. Further, the “Minimal inhibitory concentration, E. coli UB1005” value in assay [12] is 8 µg/mL. The “antimicrobial activity, overall (in words)” value (“antimicrobial activity” for short) in assay [13] is “broad spectrum of antimicrobial activity”.
As to GFWGKLFKLGLHGIGLLHLHL-NH2 [NRC-15], the “Minimal inhibitory concentration, P. aeru K799” value in assay [1] stood at 8 µg/mL. Besides, the “Minimal inhibitory concentration, P. aeru Z61” value in assay [2] is 4 µg/mL. Besides, the “Minimal inhibitory concentration, S. epi C621” value in assay [3] was determined as 4 µg/mL. For the same substance, in [4], the “Minimal inhibitory concentration, A. sal 97-4” value stood at 16 µg/mL. In assay [5], the “concentration inhibiting the growth of methicillin-resistant S. aureus” value came out at 4 µg/mL and the “Minimal inhibitory concentration, MRSA C623” value came out at 4 µg/mL. Besides, the “Minimal inhibitory concentration, E. coli C786” value in [6] worked out at 8 µg/mL. Moreover, the “Minimal inhibitory concentration, A. sal 99-1” value in [7] came to 8 µg/mL. In addition, the “Minimal inhibitory concentration, C. alb C627” value in assay [8] came to 16 µg/mL. Also, the “ability to kill methicillin-resistant S. aureus” value in assay [14] is listed as “ability to kill”. Moreover, in [9], the “Minimal inhibitory concentration, S. typh 14028s” value worked out at 16 µg/mL. For the same substance, the “Minimal inhibitory concentration, S. typh MS4252s” value in assay [10] was 4 µg/mL. Moreover, the “Minimal inhibitory concentration, E. coli DC2” value in assay [11] worked out at 8 µg/mL. Besides, the “Minimal inhibitory concentration, E. coli UB1005” value in assay [12] stood at 8 µg/mL. The “antimicrobial activity” value in assay [13] is “broad spectrum of antimicrobial activity”.
For the substance GWRTLLKKAEVKTVGKLALKHYL-NH2 [NRC-13], the “MIC against P. aeruginosa K799” value in assay [1] (text statement to FIG. 25) turned out to be 4 µg/mL. For the same substance, in assay [2], the “Minimal inhibitory concentration, P. aeru Z61” value turned out to be 1 µg/mL. In addition, in assay [2] (strain not stated, value matches Z61 of Table 8), the “concentration inhibiting the growth of P. aeruginosa” value is 1 µg/mL. Further, the “ability to kill P. aeruginosa” value in the assay with Pseudomonas aeruginosa (at MIC and ten times MIC, Mueller-Hinton broth, FIG. 14) was “ability to kill”. Further, in the assay with Pseudomonas aeruginosa (strain not stated), the “concentration killing P. aeruginosa” value amounted to 1 µg/mL. For the same substance, the “ability to kill P. aeruginosa K799 in NaCl” value with P. aeruginosa K799 is “kill”. Besides, the “Minimal inhibitory concentration, S. epi C621” value in assay [3] worked out at 4 µg/mL. Moreover, the “Minimal inhibitory concentration, A. sal 97-4” value in [4] was determined as 2 µg/mL. In addition, the “concentration inhibiting the growth of A. salmonicida” value in [4] (strain not stated, value matches 97-4 of Table 8) was found to be 2 µg/mL. In assay [5], the “concentration inhibiting the growth of methicillin-resistant S. aureus” value was 4 µg/mL and the “Minimal inhibitory concentration, MRSA C623” value was 4 µg/mL. Also, the “Minimal inhibitory concentration, E. coli C786” value in assay [6] came to 2 µg/mL. Further, the “Minimal inhibitory concentration, A. sal 99-1” value in [7] amounted to 4 µg/mL. Moreover, in [8], the “concentration inhibiting the growth of C. albicans” value came to 4 µg/mL and the “Minimal inhibitory concentration, C. alb C627” value worked out at 4 µg/mL. Moreover, the “Minimal inhibitory concentration, S. typh 14028s” value in assay [9] was found to be 8 µg/mL. The “Minimal inhibitory concentration, S. typh MS4252s” value in [10] stood at 2 µg/mL. In addition, the “Minimal inhibitory concentration, E. coli DC2” value in assay [11] came to 2 µg/mL. In addition, the “Minimal inhibitory concentration, E. coli UB1005” value in assay [12] is 4 µg/mL. Besides, the “antimicrobial activity” value in [13] is reported as “broad spectrum of antimicrobial activity; also recorded: highly active”.
As to “pleurocidin (GWGSFFKKAAHVGKHVGKAALTHYL-NH2; UniProt P81941 23-47, looked up) [Synthetic pleurocidin, Synthetic pleurocidin identical to the central portion of WF2 (Jia et al. 2000)]”, the “protection against infection by Vibrio anguillarum” value with Vibrio anguillarum is recorded as “protect Coho salmon against infection”.
